# Assay results taken from paper PMC2532997, “Methoxylation enhances stilbene bioactivity in Caenorhabditis elegans” (BMC Pharmacology, 2008).
# Legend:
# [1] = system: gld-1(q485) germline tumors; experiment: Germline tumor growth assay (DAPI-stained tumor area); type: in vivo, Caenorhabditis elegans; conditions: 100 μM dose, four days treatment
# Experimental: To assess the effects of methoxylation on antitumor activity in vivo, tumor area was measured in gld-1(q485) adults treated for four days with either resveratrol trimethylether, desoxyrhapontigenin or pterostilbene, which are methoxylated and toxic to adults, or resveratrol, which is hydroxylated and nontoxic. As controls, germline tumor area was also measured in animals treated with carrier only (ethanol) or with 5-fluoro-2'-deoxyuradine (FUDR), a thymidylate synthetase inhibitor that blocks cell proliferation. […] After four days of treatment, animals were collected and germline tumors were visualized by DAPI staining to visualize germcell nuclei. Because the level of DAPI staining was not quantitative between animals, we DAPI signal intensity was not used as a measure of tumor size. Rather, tumor size was directly measured as the area of the DAPI-stained gonad.
# (§1) Resveratrol and picetannol were obtained from commercial sources (Sigma-Aldrich, Inc. and Calbiochem-Novobiochem Corp., respectively). The methoxylated stilbenes pinostilbene, desoxyrhapontigenin, 3-hydroxy-5,4'-dimethoxystilbene and pterostilbene (Figure 1) were synthesized by partial methylation of trans-resveratrol as previously reported. The methoxylated stilbenes were purified by preparative layer chromatography (Merck Silica gel 60 F254; EMD Chemicals Inc., Gibbstown, NJ) using the developing solvent chloroform:methanol (96:4) with 1% formic acid. The Rf values for pterostilbene, 3-hydroxy-5,4'-dimethoxystilbene, pinostilbene and desoxyrhapontigenin are 0.61, 0.57, 0.28, and 0.20, respectively. These stilbenes were identified from their ^1H-NMR spectra (Bruker 400 MHz; Bruker, Billerica, MA). All stilbenes were dissolved in ethanol to 25 mg/mL before use. 5-Fluoro-deoxyuracil (Sigma Chemical Co.) was dissolved to 1 mg/mL in sterile water and stored frozen at -20°C until use. For treating C. elegans adults, each compound was added in a 200 μL volume to the top of a 1-day old bacterial lawn grown on NGM medium to final concentrations as indicated. Compounds were allowed 2 hours to diffuse through the agar medium before animals were added.
# The gld-1(q485) mutation causes a defect in oocyte development that results in growth of germline tumors that fill the somatic gonad, eventually leading to the animal's death. To examine the effects of the stilbenes on gld-1(q485) germline tumors, day 0 adults were placed on stilbene-containing medium in the presence of OP50 bacteria as food source. After 4 days at 20°C, animals were fixed in methanol and germcell nuclei were visualized by staining with DAPI. Images were collected with the entire animal in view using the 4× objective on a Nikon E800 microscope equipped with a Hamamatsu Orca ER CCD camera using OpenLab imaging software. NIH Image J software was used to measure germline tumor growth in treated and untreated animals. Tumor area was measured by outlining the entire DAPI-stained tumor.
# [2] = system: C. elegans fem-1(hc17) sterile adults; experiment: Adult survival assay of sterile fem-1(hc17) adults on compound-supplemented medium; type: in vivo, Caenorhabditis elegans
# Experimental: For survival assays, young adult (day 0) animals were transferred onto fresh medium supplemented with the test compound at a range of concentrations. The compounds were tested at indicated concentrations in the growth medium (below). C. elegans nematodes are surrounded by a thick collagenous cuticle and are therefore relatively impermeable to environmental compounds. […] Survival was scored every 2–3 days as the ability to move in response to a gentle mechanical stimulus. During the first week of adulthood, C. elegans hermaphrodites are reproductively competent and normally produce 200–300 progeny. Since progeny production would complicate survival analysis, these experiments were performed using fem-1(hc17) animals that are sterile due to a spermatogenesis defect.
# as §1, with “The Rf values for pterostilbene, 3-hydroxy-5,4'-dimethoxystilbene, pinostilbene and desoxyrhapontigenin are 0.61, 0.57, 0.28, and 0.20, respectively.” left out
# For survival analyses, synchronized populations of sterile fem-1(hc17) hermaphrodites were obtained by first transferring several fertile hermaphrodites to a fresh plate at 25°C and allowing them to lay eggs for several hours. The parent hermaphrodites were removed and embryos were allowed to develop into sterile adults at 25°C, which takes approximately 48 hours. On the first day of adulthood, referred to as day 0, sterile adults were transferred onto fresh media supplemented with stilbenes at indicated concentrations, and maintained at 25°C. Adult survival was scored every 2–3 days by the animal's ability to move in response to a gentle mechanical stimulus. Statistical analysis of survival was performed using the JMP software package.
structure (smiles),measurement,setting,value
"COc1ccc(/C=C/c2cc(OC)cc(OC)c2)cc1 [Resveratrol-trimethylether, resveratrol-trimethylether]",effect on tumor size (in words),[1],consistent reductions in tumor size
same,"Mean lifespan, Treated","[2]; Trial 1, 100 μM in medium, from day 0 of adulthood, 25°C, control 12.16 days",9.7 days
same,Relative survival,"[2]; Trial 1, 100 μM, treated vs control mean lifespan",80%
same,Relative survival,"[2]; Trial 4, 20 μM",69%
same,"Mean lifespan, Treated","[2]; Trial 4, 20 μM, control 11.26 days",7.72 days
same,Relative survival,"[2]; Trial 4, 40 μM",69%
same,"Mean lifespan, Treated","[2]; Trial 4, 40 μM, control 11.26 days",7.72 days
same,Relative survival,"[2]; Trial 4, 100 μM",64%
same,"Mean lifespan, Treated","[2]; Trial 4, 100 μM, control 11.26 days",7.18 days
same,Relative survival,"[2]; Trial 5, 5 μM",102%
same,"Mean lifespan, Treated","[2]; Trial 5, 5 μM, control 18.49 days",18.83 days
same,Relative survival,"[2]; Trial 5, 20 μM",89%
same,"Mean lifespan, Treated","[2]; Trial 5, 20 μM, control 18.49 days",16.41 days
same,Relative survival,"[2]; Trial 5, 100 μM",82%
same,"Mean lifespan, Treated","[2]; Trial 5, 100 μM, control 18.49 days",15.18 days
same,Relative survival,"[2]; Trial 6, 20 μM",59%
same,"Mean lifespan, Treated","[2]; Trial 6, 20 μM, control 15.32 days",9.02 days
same,Relative survival,"[2]; Trial 6, 40 μM",52%
same,"Mean lifespan, Treated","[2]; Trial 6, 40 μM, control 15.32 days",7.98 days
same,Relative survival,"[2]; Trial 6, 100 μM",49%
same,"Mean lifespan, Treated","[2]; Trial 6, 100 μM, control 15.32 days",7.54 days
